According to US20140249196A1, “N-BENZYLBENZIMIDAZOLE MODULATORS OF PPARG” (priority 2011, published 2014):

Legend:
GST-PPARG-LBD = target: T1, GST-PPARG-LBD (Homo sapiens, UniProt P37231); experiment: Lanthascreen PPARG competitive binding assay (Invitrogen); conditions: Table 3; for IC50: read-out: IC50 (nM) Lantha
T1 construct: A mixture of 5 nM GST-PPARG-LBD; purchased Invitrogen
T1 sequence (P37231 238-503 limits assumed): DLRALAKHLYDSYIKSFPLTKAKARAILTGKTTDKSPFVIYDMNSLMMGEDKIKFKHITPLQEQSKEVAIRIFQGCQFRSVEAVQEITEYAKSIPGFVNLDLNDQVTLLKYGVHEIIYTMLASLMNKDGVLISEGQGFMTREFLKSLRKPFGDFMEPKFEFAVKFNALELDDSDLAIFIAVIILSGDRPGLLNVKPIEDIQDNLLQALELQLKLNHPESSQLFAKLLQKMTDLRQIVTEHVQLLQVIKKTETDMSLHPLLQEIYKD
Protocol: Lanthascreen PPARG Competitive Binding Assay (Invitrogen)
The assay was performed according to manufacturer protocol. A mixture of 5 nM GST-PPARG-LBD, 5 nM Tb-GST-antibody, 5 nM Fluormone Pan-PPAR Green, and serial dilutions of the experimental compound, beginning at 10 μM downwards, was added to wells of black 384-well low-volume plates (Greiner) to a total volume of 18 μL. All dilutions were made in TR-FRET assay buffer C. DMSO at 2% final concentration was used as a no-ligand control. Experiment was performed in triplicate, and incubated for 2 hours in the dark prior to assay read in Perkin Elmer ViewLux ultra HTS microplate reader. FRET signal was measured by excitation at 340 nm and emission at 520 nm for fluorescein and 490 nm for terbium. Fold change over DMSO was calculated using GraphPad Prism Software (La Jolla, Calif.) by calculating 520 nm/490 nm ratio. Graphs were plotted as fold change of FRET signal for compound treatment over DMSO-only control.

PPARG [1] = target: T2, PPARG (Homo sapiens, UniProt P37231); experiment: Gal4 transactivation assay; format: cell-based; conditions: Table 3
T2 construct: own inference from the column head
T2 sequence (P37231 1-505): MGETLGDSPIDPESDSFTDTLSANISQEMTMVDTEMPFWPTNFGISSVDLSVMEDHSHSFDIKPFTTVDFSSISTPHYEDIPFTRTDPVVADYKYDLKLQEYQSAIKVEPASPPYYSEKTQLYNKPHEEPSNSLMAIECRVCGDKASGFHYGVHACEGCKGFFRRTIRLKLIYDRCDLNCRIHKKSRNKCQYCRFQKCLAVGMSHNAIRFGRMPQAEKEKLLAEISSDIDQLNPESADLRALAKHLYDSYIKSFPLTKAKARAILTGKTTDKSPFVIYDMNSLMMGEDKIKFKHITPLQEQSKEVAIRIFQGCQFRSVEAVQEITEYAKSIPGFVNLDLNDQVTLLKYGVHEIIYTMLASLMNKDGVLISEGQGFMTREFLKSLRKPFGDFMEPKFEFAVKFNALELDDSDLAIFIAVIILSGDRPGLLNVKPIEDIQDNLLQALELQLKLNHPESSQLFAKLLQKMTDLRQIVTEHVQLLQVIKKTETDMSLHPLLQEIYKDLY

PPARG [2] = experiment: Cell-based transactivation assay (3xPPRE-luciferase reporter, COS-1 cells co-transfected with PPARG); design: species or system murine or human (not said which for the values)
Protocol: Cell-Based Transactivation Assay: PPRE is a DNA that contains a binding site for PPARG; thus PPRE is a PPAR response element, used herein as a promoter reporter. The binding site is a DR1 response element with the sequence [NT] repeated 3 times in tandem and then fused to a construct for luciferase. Thus, PPRE is the basis of the cell based transactivation assay described below. The plasmid DNA is co-transfected along with a plasmid for PPARG into COS-1 cells. After an overnight incubation, cells are treated with DMSO or compounds. […] Transfected cells were plated in white Perkin Elmer 384-well plates and incubated 4 hours. […] After 18 hour incubation, treated cells were developed with Brite Lite Plus (Perkin Elmer) and read in 384-well Luminescence Perkin Elmer EnVision Multilabel plate reader. Graphs were plotted in triplicate in GraphPad Prism Software as fold change of treated cells over DMSO control cells.

| Compound | IC50 (GST-PPARG-LBD) | further results |
| --- | --- | --- |
| CC(C)c1cccc([C@H](C)NC(=O)c2ccc3c(c2)ncn3[C@@H](C)c2ccc(Cl)cc2)c1 [Cpd 15] | 2520 nM | – |
| C[C@H](NC(=O)c1ccc2c(c1)ncn2Cc1ccc(Cl)cc1)c1ccc(Br)cc1 [Cpd 16] | 2380 nM | – |
| CC(C)c1cccc([C@H](C)NC(=O)c2ccc3c(c2)ncn3Cc2ccc(Cl)cc2)c1 [Cpd 17] | 4400 nM | – |
| C[C@@H](CC1CCOCC1)NC(=O)c1ccc2c(c1)ncn2Cc1ccc(Cl)cc1 [Cpd 19] | 2100 nM | – |
| O=C(NCC1CC1)c1ccc2c(c1)ncn2Cc1ccc(Cl)cc1 [Cpd 20] | 18300 nM | – |
| Cc1nc2cc(C(=O)N[C@@H](C)c3cccc(Br)c3)ccc2n1Cc1cccc(O[C@H](C)C(=O)O)c1 [Cpd 21] | – | IC50 (nM) Lantha (GST-PPARG-LBD): 1e+08 nM |
| COCCCNC(=O)c1ccc2c(c1)ncn2Cc1ccc(Cl)cc1 [Cpd 22] | 7330 nM | – |
| CCOCCNC(=O)c1ccc2c(c1)ncn2Cc1ccc(Cl)cc1 [Cpd 23] | 3710 nM | – |
| COCCNC(=O)c1ccc2c(c1)ncn2Cc1ccc(Cl)cc1 [Cpd 24] | 6360 nM | – |
| COC[C@H](C)NC(=O)c1ccc2c(c1)ncn2Cc1ccc(Cl)cc1 [Cpd 25] | 5220 nM | – |
| O=C(NCC[C@H]1CCO1)c1ccc2c(c1)ncn2Cc1ccc(Cl)cc1 [Cpd 26] | 6770 nM | – |
| CCCCNC(=O)c1ccc2c(c1)ncn2Cc1ccc(Cl)cc1 [Cpd 28] | 1420 nM | – |
| O=C(NCC1CCC1)c1ccc2c(c1)ncn2Cc1ccc(Cl)cc1 [Cpd 29] | 7950 nM | – |
| CC(C)CCC(C)NC(=O)c1ccc2c(c1)ncn2Cc1ccc(Cl)cc1 (stereo not drawn) [Cpd 30] | 42.3 nM | EC50 (PPARG [1]): 636 nM; GL4 % act 1 μM (PPARG [1]): 96.37%; GL4 % act 10 μM (PPARG [1]): 109.37% |
| CC(C)CC(C)NC(=O)c1ccc2c(c1)ncn2Cc1ccc(Cl)cc1 (stereo not drawn) [Cpd 31] | 31.8 nM | EC50 (PPARG [1]): 12200 nM; GL4 % act 1 μM (PPARG [1]): 34.29%; GL4 % act 10 μM (PPARG [1]): 68.66% |
| CCc1nc2cc(C(=O)N[C@@H](C)c3cccc(C(C)C)c3)ccc2n1Cc1cccc(O[C@@H](C)C(=O)O)c1 [Cpd 32] | 2030 nM | – |
| Cc1nc2cc(C(=O)N[C@@H](C)c3cccc(C(C)C)c3)ccc2n1Cc1cccc(O[C@@H](C)C(=O)O)c1 [Cpd 33] | 2420 nM | – |
| CC(C)CCNC(=O)c1ccc2c(c1)ncn2Cc1ccc(Cl)cc1 [Cpd 34] | 1090 nM | – |

| Compound | IC50 (GST-PPARG-LBD) | further results |
| --- | --- | --- |
| CCCc1nc2cc(C(=O)N[C@@H](C)c3cccc(C(C)C)c3)ccc2n1Cc1cccc(O[C@@H](C)C(=O)O)c1 [Cpd 35] | 2410 nM | – |
| COCCOCc1ccc2c(c1)ncn2Cc1ccc(Cl)cc1 [Cpd 36] | 13700 nM | – |
| COC(=O)[C@H](C)NC(=O)c1ccc2c(c1)ncn2Cc1ccc(Cl)cc1 [Cpd 38] | 2160 nM | – |
| COC[C@@H](NC(=O)c1ccc2c(c1)ncn2Cc1ccc(Cl)cc1)C(C)C [Cpd 39] | 612 nM | EC50 (PPARG [1]): 442 nM; GL4 % act 1 μM (PPARG [1]): 62.18% |
| CC(C)[C@@H](CO)NC(=O)c1ccc2c(c1)ncn2Cc1ccc(Cl)cc1 [Cpd 40] | 3250 nM | – |
| CC(C)c1cccc([C@H](C)NC(=O)c2ccc3c(c2)ncn3[C@H](C)c2ccc(Cl)cc2)c1 [Cpd 41] | 11000 nM | – |
| O=C(N[C@H](CO)c1ccccc1)c1ccc2c(c1)ncn2Cc1ccc(Cl)cc1 [Cpd 42] | 921 nM | – |
| COC(=O)[C@@H](NC(=O)c1ccc2c(c1)ncn2Cc1ccc(Cl)cc1)c1ccccc1 [Cpd 43] | 237 nM | EC50 (PPARG [1]): 752 nM; GL4 % act 1 μM (PPARG [1]): 51.21% |
| C[C@@H](CO)NC(=O)c1ccc2c(c1)ncn2Cc1ccc(Cl)cc1 [Cpd 46] | 24400 nM | – |
| CC(C)CC(C)NC(=O)c1ccc2c(c1)ncn2[C@H](C)c1ccc(Cl)cc1 (stereo partly drawn) [Cpd 47] | 8400 nM | – |
| CC(C)CCC(C)NC(=O)c1ccc2c(c1)ncn2[C@H](C)c1ccc(Cl)cc1 (stereo partly drawn) [Cpd 48] | 1260 nM | – |
| CC(C)c1cccc([C@H](C)NC(=O)c2ccc3c(c2)ncn3Cc2ccc(Cl)nc2)c1 [Cpd 49] | 2050 nM | – |
| CC(C)c1cccc([C@@H](C)NC(=O)c2ccc3c(c2)ncn3Cc2ccc(Cl)cc2)c1 [Cpd 50] | 162 nM | EC50 (PPARG [1]): 44.1 nM; GL4 % act 1 μM (PPARG [1]): 54.52% |
| CC[C@@H](NC(=O)c1ccc2c(c1)ncn2Cc1ccc(Cl)cc1)c1ccccc1 [Cpd 51] | 1050 nM | EC50 (PPARG [1]): 3910 nM; GL4 % act 1 μM (PPARG [1]): 76.12% |
| CC[C@H](NC(=O)c1ccc2c(c1)ncn2Cc1ccc(Cl)cc1)c1ccccc1 [Cpd 52] | 403 nM | EC50 (PPARG [1]): 99.3 nM; GL4 % act 1 μM (PPARG [1]): 30.41% |
| COc1ccc(C(=O)n2c(C)c(Cc3cccc(O[C@@H](C)C(=O)O)c3)c3cc(OC(F)(F)F)ccc32)cc1 [MRL24] | – | transactivation of the reporter, % of rosiglitazone response (PPARG [2]; relative to rosiglitazone): about 25% |
| CN(CCOc1ccc(CC2SC(=O)NC2=O)cc1)c1ccccn1 (stereo not drawn) [rosiglitazone] | – | activation of the PPRE reporter (PPARG [2]; over DMSO): about 5 fold |
